Results as given in ChEMBL document CHEMBL1201862, “PubChem BioAssay data set” (2004).
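Following 48 hours of exposure in 96-well plates, responses at five concentrations were used to interpolate endpoints linearly. GI50 = concentration required for 50% inhibition of growth.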 The source made the active and inactive calls. Rule as the data show it: active = GI50 up to about 1.1 µM and inactive = higher.

Tests used:
Experiment in all cases: NCI anticancer screen, dose series, 48 h
[1] = system: 786-0
[2] = system: A498
[3] = system: A549
[4] = system: ACHN
[5] = system: BT-549
[6] = system: CAKI-1
[7] = system: CCRF-CEM
[8] = system: COLO 205
[9] = system: DLD-1
[10] = system: DMS-114
[11] = system: DMS-273
[12] = system: DU-145
[13] = system: EKVX
[14] = system: HCC 2998
[15] = system: HCT-116
[16] = system: HCT-15
[17] = system: HL-60
[18] = system: HOP-18
[19] = system: HOP-62
[20] = system: HOP-92
[21] = system: HT-29
[22] = system: Hs-578T
[23] = system: IGROV-1
[24] = system: K562
[25] = system: KM-20L2
[26] = system: KM12
[27] = system: LOX IMVI
[28] = system: M14
[29] = system: M19-MEL
[30] = system: MCF7
[31] = system: MDA-MB-231
[32] = system: MDA-MB-435
[33] = system: MDA-N
[34] = system: MOLT-4
[35] = system: Malme-3M
[36] = system: NCI-H226
[37] = system: NCI-H23
[38] = system: NCI-H460
[39] = system: NCI-H522
[40] = system: NCI/ADR-RES
[41] = system: OVCAR-3
[42] = system: OVCAR-4
[43] = system: OVCAR-5
[44] = system: OVCAR-8
[45] = system: PC-3
[46] = system: RPMI-8226
[47] = system: RXF 393
[48] = system: SF-268
[49] = system: SF-295
[50] = system: SF-539
[51] = system: SK-MEL-28
[52] = system: SK-MEL-2
[53] = system: SK-MEL-5
[54] = system: SK-OV-3
[55] = system: SN12C
[56] = system: SNB-19
[57] = system: SNB-75
[58] = system: SNB-78
[59] = system: SR
[60] = system: SW-620
[61] = system: T47D
[62] = system: TK-10
[63] = system: U-251
[64] = system: UACC-257
[65] = system: UACC-62
[66] = system: UO-31
[67] = system: XF498

In the case of `NC(=O)c1[nH]nc(C2OC(CO)C(O)C2O)c1O` (configuration not stated), the GI50 [1] is reported as 0.5 µM (active), the GI50 [2] is reported as 60.5 µM (inactive) and the GI50 [3] is reported as 0.6 µM (active). The GI50 [4] was 0.5 µM (active), the GI50 [5] was 182 µM (inactive) and the GI50 [6] was 0.689 µM (active). For the same compound, the GI50 [7] was 0.507 µM (active), the GI50 [8] was 16 µM (inactive) and the GI50 [9] was 1.45 µM (inactive). For the same compound, the GI50 [10] was 19.9 µM (inactive), the GI50 [11] was 0.713 µM (active) and the GI50 [12] was 0.5 µM (active). The GI50 [13] was 52.6 µM (inactive), the GI50 [14] was 42.5 µM (inactive) and the GI50 [15] was 0.548 µM (active). For the same compound, the GI50 [16] was 0.5 µM, the GI50 [17] was 0.724 µM (active) and the GI50 [18] was 43 µM (inactive). For the same compound, the GI50 [19] was 2.68 µM (inactive), the GI50 [20] was 30.5 µM (inactive) and the GI50 [21] was 0.851 µM (active). The GI50 [22] was 94 µM (inactive), the GI50 [23] was 0.776 µM (active) and the GI50 [24] was 0.5 µM (active). For the same compound, the GI50 [25] was 2.76 µM (inactive), the GI50 [26] was 10.4 µM (inactive) and the GI50 [27] was 0.504 µM (active). The GI50 [28] was 95.3 µM (inactive), the GI50 [29] was 13.2 µM (inactive) and the GI50 [30] was 1.79 µM (inactive). For the same compound, the GI50 [31] was 8.59 µM (inactive), the GI50 [32] was 15.7 µM (inactive) and the GI50 [33] was 3.39 µM (inactive). For the same compound, the GI50 [34] was 0.561 µM (active), the GI50 [35] was 368 µM (inactive) and the GI50 [36] was 181 µM (inactive). The GI50 [37] was 9.59 µM (inactive), the GI50 [38] was 0.573 µM (active) and the GI50 [39] was 37.2 µM (inactive). The GI50 [40] was 2.68 µM (inactive), the GI50 [41] was 19.6 µM (inactive) and the GI50 [42] was 24.7 µM (inactive). The GI50 [43] was 183 µM (inactive), the GI50 [44] was 0.5 µM (active) and the GI50 [45] was 3.02 µM (inactive). The GI50 [46] was 0.682 µM (active), the GI50 [47] was 8.99 µM (inactive) and the GI50 [48] was 4.57 µM (inactive). The GI50 [49] was 0.851 µM (active), the GI50 [50] was 16.9 µM (inactive) and the GI50 [51] was 328 µM (inactive). The GI50 [52] was 84.7 µM (inactive), the GI50 [53] was 64.3 µM (inactive) and the GI50 [54] was 84.3 µM (inactive). The GI50 [55] was 3.18 µM (inactive), the GI50 [56] was 2.6 µM (inactive) and the GI50 [57] was 101 µM (inactive). The GI50 [58] was 37.7 µM (inactive), the GI50 [59] was 0.5 µM (active) and the GI50 [60] was 0.55 µM (active). For the same compound, the GI50 [61] was 5.55 µM (inactive), the GI50 [62] was 91.6 µM (inactive) and the GI50 [63] was 1.38 µM (inactive). The GI50 [64] was 966 µM (inactive), the GI50 [65] was 4.38 µM (inactive) and the GI50 [66] was 4.01 µM (inactive). For the same compound, the GI50 [67] was 71.9 µM (inactive).
